From the supplement of paper PMC10307832

How the values were obtained:
Experiment in all cases: relative viability (nuclei count vs DMSO), 5 days (fraction); higher = more cells survive
Doramapimod + Dasatinib = compound: Cc1ccc(-n2nc(C(C)(C)C)cc2NC(=O)Nc2ccc(OCCN3CCOCC3)c3ccccc23)cc1 [Doramapimod] + Cc1nc(Nc2ncc(C(=O)Nc3c(C)cccc3Cl)s2)cc(N2CCN(CCO)CC2)n1 [Dasatinib] (partner 0.075 µM)
Procedure, shortened: (§1)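 Dosing by pin tool came one day after lung cancer cell lines were seeded in 1536-well plates, using either one drug or a fixed anchor-drug dose plus five library-drug doses (not always all listed) in √10 steps. After 5 days, nuclei were counted on 4× images. Relative viability is treated-well nuclei count divided by vehicle-well nuclei count, and values are medians of duplicate plates.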

Doramapimod + Phenformin = compound: Cc1ccc(-n2nc(C(C)(C)C)cc2NC(=O)Nc2ccc(OCCN3CCOCC3)c3ccccc23)cc1 [Doramapimod] + N=C(N)NC(=N)NCCc1ccccc1 [Phenformin] (partner 250 µM)
Procedure, shortened: as §1

RAF265 + Decitabine = compound: Cn1c(Nc2ccc(C(F)(F)F)cc2)nc2cc(Oc3ccnc(-c4ncc(C(F)(F)F)[nH]4)c3)ccc21 [RAF265] + Nc1ncn([C@H]2C[C@H](O)[C@@H](CO)O2)c(=O)n1 [Decitabine] (partner 2 µM)
Procedure, shortened: as §1

Doramapimod + AZD7762 = compound: Cc1ccc(-n2nc(C(C)(C)C)cc2NC(=O)Nc2ccc(OCCN3CCOCC3)c3ccccc23)cc1 [Doramapimod] + NC(=O)Nc1cc(-c2cccc(F)c2)sc1C(=O)N[C@H]1CCCNC1 [AZD7762] (partner 0.2 µM)
Procedure, shortened: as §1

Row | Cell Line | relative viability (Doramapimod + Dasatinib; first compound 0.02 µM) | relative viability (Doramapimod + Dasatinib; first compound 0.06325 µM) | relative viability (Doramapimod + Dasatinib; first compound 0.2 µM) | relative viability (Doramapimod + Dasatinib; first compound 0.6325 µM) | relative viability (Doramapimod + Dasatinib; first compound 2 µM) | relative viability (Doramapimod + Phenformin; first compound 0.02 µM) | relative viability (Doramapimod + Phenformin; first compound 0.06325 µM) | relative viability (Doramapimod + Phenformin; first compound 0.2 µM) | relative viability (Doramapimod + Phenformin; first compound 0.6325 µM) | relative viability (Doramapimod + Phenformin; first compound 2 µM) | relative viability (RAF265 + Decitabine; first compound 0.01 µM) | relative viability (RAF265 + Decitabine; first compound 0.03162 µM) | relative viability (RAF265 + Decitabine; first compound 0.1 µM) | relative viability (RAF265 + Decitabine; first compound 0.3162 µM) | relative viability (RAF265 + Decitabine; first compound 1 µM) | relative viability (Doramapimod + AZD7762; first compound 0.02 µM) | relative viability (Doramapimod + AZD7762; first compound 0.06325 µM) | relative viability (Doramapimod + AZD7762; first compound 0.2 µM) | relative viability (Doramapimod + AZD7762; first compound 0.6325 µM) | relative viability (Doramapimod + AZD7762; first compound 2 µM)
1 | NCI-H1666 | 0.889 | 0.881 | 0.876 | 1.14 | 0.87 | 0.601 | 0.555 | 0.61 | 0.581 | 0.554 | 0.851 | 0.915 | 0.71 | 0.722 | 0.694 | 0.9 | 0.943 | 1.01 | 0.975 | 0.851
2 | NCI-H1734 | 0.443 | 0.405 | 0.426 | 0.509 | 0.39 | 0.332 | 0.344 | 0.344 | 0.355 | 0.289 | 0.515 | 0.424 | 0.47 | 0.41 | 0.304 | 0.418 | 0.608 | 0.498 | 0.75 | 0.434
3 | NCI-H1755 | 0.458 | 0.438 | 0.369 | 0.4 | 0.344 | 0.577 | 0.596 | 0.6 | 0.541 | 0.559 | 0.693 | 0.661 | 0.728 | 0.723 | 0.642 | 0.428 | 0.5 | 0.379 | 0.477 | 0.412
4 | NCI-H1792 | 0.727 | 0.645 | 0.713 | 0.645 | 0.654 | 0.389 | 0.381 | 0.217 | 0.476 | 0.214 | 0.462 | 0.506 | 0.472 | 0.324 | 0.204 | 0.43 | 0.89 | 0.842 | 0.618 | 0.434
5 | NCI-H1793 | 0.335 | 0.379 | 0.368 | 0.36 | 0.344 | 0.365 | 0.346 | 0.346 | 0.381 | 0.256 | 0.554 | 0.463 | 0.438 | 0.332 | 0.277 | 0.381 | 0.326 | 0.523 | 0.321 | 0.243
6 | NCI-H1915 | 0.304 | 0.327 | 0.316 | 0.354 | 0.307 | 0.362 | 0.357 | 0.375 | 0.348 | 0.298 | 0.262 | 0.278 | 0.258 | 0.236 | 0.193 | 0.694 | 0.734 | 0.771 | 0.82 | 0.664
7 | NCI-H1944 | 0.213 | 0.231 | 0.193 | 0.232 | 0.216 | 0.181 | 0.201 | 0.196 | 0.227 | 0.166 | 0.445 | 0.496 | 0.398 | 0.384 | 0.317 | 0.468 | 0.62 | 0.341 | 0.647 | 0.312
8 | NCI-H1975 | 0.284 | 0.365 | 0.353 | 0.374 | 0.357 | 0.41 | 0.382 | 0.411 | 0.415 | 0.397 | 0.403 | 0.364 | 0.308 | 0.263 | 0.254 | 0.863 | 0.874 | 0.871 | 0.665 | 0.787
9 | NCI-H1993 | 0.885 | 0.638 | 0.505 | 0.705 | 0.559 | 0.512 | 0.484 | 0.543 | 0.542 | 0.548 | 0.615 | 0.644 | 0.561 | 0.544 | 0.624 | 0.751 | 0.675 | 0.608 | 0.781 | 0.557
10 | NCI-H2085 | 0.253 | 0.252 | 0.221 | 0.28 | 0.201 | 0.758 | 0.623 | 0.592 | 0.705 | 0.661 | 0.547 | 0.506 | 0.571 | 0.587 | 0.59 | 1.07 | 0.978 | 1.01 | 1.08 | 1.02
11 | NCI-H2087 | 0.937 | 1.07 | 0.809 | 0.893 | 0.837 | 0.403 | 0.459 | 0.411 | 0.415 | 0.412 | 0.287 | 0.257 | 0.251 | 0.188 | 0.147 | 1.47 | 1.52 | 1.15 | 1.42 | 1.39
12 | NCI-H2126 | 0.59 | 0.661 | 0.577 | 0.544 | 0.497 | 0.527 | 0.526 | 0.505 | 0.496 | 0.489 | 0.607 | 0.56 | 0.563 | 0.573 | 0.412 | 0.865 | 1.02 | 0.942 | 1.02 | 1.04
13 | NCI-H2170 | 0.614 | 0.616 | 0.7 | 0.896 | 0.594 | 0.418 | 0.403 | 0.474 | 0.368 | 0.426 | 0.482 | 0.439 | 0.499 | 0.366 | 0.386 | 0.828 | 0.948 | 0.889 | 1.07 | 0.851
14 | NCI-H2342 | 0.277 | 0.309 | 0.319 | 0.333 | 0.278 | 0.617 | 0.594 | 0.593 | 0.704 | 0.497 | 0.717 | 0.672 | 0.727 | 0.784 | 0.714 | 0.416 | 0.513 | 0.49 | 0.486 | 0.485
15 | NCI-H2347 | 0.351 | – | 0.291 | 0.319 | 0.282 | 0.429 | – | 0.429 | 0.386 | 0.398 | 0.676 | 0.561 | 0.574 | 0.526 | 0.382 | 0.733 | 0.831 | 0.711 | 0.757 | 0.781
16 | NCI-H2405 | 0.222 | 0.219 | 0.2 | 0.403 | 0.188 | 0.402 | 0.374 | 0.335 | 0.423 | 0.316 | 0.825 | 0.776 | 0.727 | 0.607 | 0.448 | 0.821 | 0.746 | 0.758 | 0.895 | 0.686
